Values belong to the compound of their own block, whether it stands above or below them.
Columns and labels:
COX-1 [1] = biological target: T1, COX-1 (Homo sapiens, UniProt P23219); experiment: microsomal enzyme assay, percent inhibition at […] (marginal, […], at […]); format: biochemical; parameters: gene PTGS1; recombinant human COX-1, microsomes from transfected Sf9 cells
COX-1 [2] = biological target: T1, COX-1; parameters: gene PTGS1
COX-1 [3] = biological target: T1, COX-1; experiment: microsomal enzyme assay, percent inhibition at […] (only […] at […]); format: cell-free; parameters: gene PTGS1; recombinant human COX-1, microsomes from transfected Sf9 cells

T1 sequence (P23219 24-599): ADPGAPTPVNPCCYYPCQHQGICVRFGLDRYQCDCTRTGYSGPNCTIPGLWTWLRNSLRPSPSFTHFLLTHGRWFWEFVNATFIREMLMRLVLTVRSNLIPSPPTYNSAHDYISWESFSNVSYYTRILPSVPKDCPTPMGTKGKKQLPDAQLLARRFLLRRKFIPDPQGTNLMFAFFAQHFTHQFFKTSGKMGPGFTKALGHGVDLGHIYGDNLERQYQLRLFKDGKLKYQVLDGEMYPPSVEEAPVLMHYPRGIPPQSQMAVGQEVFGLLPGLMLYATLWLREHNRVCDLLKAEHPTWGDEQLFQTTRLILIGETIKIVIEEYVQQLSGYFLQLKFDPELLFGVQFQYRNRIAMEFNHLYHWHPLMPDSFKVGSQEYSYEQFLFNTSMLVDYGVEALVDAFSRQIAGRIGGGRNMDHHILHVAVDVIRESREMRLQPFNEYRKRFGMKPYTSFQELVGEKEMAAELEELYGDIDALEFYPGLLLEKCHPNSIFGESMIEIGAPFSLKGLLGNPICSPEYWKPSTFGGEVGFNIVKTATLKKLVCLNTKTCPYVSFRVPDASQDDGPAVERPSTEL

- inhibition at 250 µM (COX-1 [1]): 14%
Structure (SMILES): CC(C)(Oc1ccc(Cl)cc1)C(=O)O [clofibric acid]

- IC50 (COX-1 [2]): 950 µM
Structure (SMILES): CC(C)(Oc1ccc(C(=O)c2ccc(Cl)cc2)cc1)C(=O)O [fenofibric acid]

- inhibition at 250 µM (COX-1 [3]): 18%
Structure (SMILES): Cc1ccc(C)c(OCCCC(C)(C)C(=O)O)c1 [gemfibrozil]
